Measurements reported in PubChem BioAssay (NCI).
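Tested at 5 concentrations; 48 h exposure; 96-well plates; endpoints linearly interpolated, else capped at highest concentration. TGI denotes the concentration required for complete inhibition of growth.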

Columns and labels:
Assay in all cases: NCI tumour cell line growth inhibition, 48 h
M14 melanoma = system: M14 melanoma
HOP-62 NSCLC = system: HOP-62 NSCLC
SK-MEL-28 melanoma = system: SK-MEL-28 melanoma
HL-60(TB) leukemia = system: HL-60(TB) leukemia
BT-549 breast = system: BT-549 breast
OVCAR-8 ovarian = system: OVCAR-8 ovarian
CCRF-CEM leukemia = system: CCRF-CEM leukemia
CAKI-1 renal = system: CAKI-1 renal
NCI-H23 lung = system: NCI-H23 lung
SK-OV-3 ovarian = system: SK-OV-3 ovarian
SNB-19 CNS = system: SNB-19 CNS

SMILES | TGI (M14 melanoma) [µM] | TGI (HOP-62 NSCLC) [µM] | TGI (SK-MEL-28 melanoma) [µM] | TGI (HL-60(TB) leukemia) [µM] | TGI (BT-549 breast) [µM] | TGI (OVCAR-8 ovarian) [µM] | TGI (CCRF-CEM leukemia) [µM] | TGI (CAKI-1 renal) [µM] | TGI (NCI-H23 lung) [µM] | TGI (SK-OV-3 ovarian) [µM] | TGI (SNB-19 CNS) [µM]
C#CCn1c(=O)c(Cl)cn(/C(=C/C(=O)OCC)C(=O)OCC)c1=O | 22.8 | 37.8 | 38.9 | 8.21 | 35.7 | 12.9 | 13.3 | 7.37 | 42.6 | > 61.6 | > 66.7
Clc1c(C(Cl)(Cl)Cl)nsc1N1CCCCC1 | 56.4 | 73.8 | > 100 | 48.2 | 48.4 | 71 | 40.5 | 55.2 | 34.7 | 78.9 | 69.7
Nn1c(Cc2ccccc2)n[nH]c1=O | > 100 | > 100 | > 100 | > 100 | > 100 | > 100 | > 100 | > 100 | > 100 | > 100 | > 100
CCOc1ccc2nc(NC(NC(=O)c3cccnc3)(C(F)(F)F)C(F)(F)F)sc2c1 | > 100 |  | > 100 | 94.8 | > 100 | 88 | 67.9 | > 100 | 65.5 | > 100 | > 100
CCOC(=O)C(C(=O)OCC)=C1NC2(c3ccccc3Nc3ccc(C)cc32)C(C(=O)OC)S1 (stereo not given) | > 100 | > 100 | > 100 | > 100 | > 100 | > 100 | > 100 | > 100 | > 100 | > 100 | > 100
Oc1ccc(O)c(CNc2ccccc2)c1 | 33.7 |  | > 100 | 12.8 | 24.3 | 36.4 | > 100 | 23.1 | 32.4 | 38.9 | 45.1
CC(=O)OCC1OC(O/C=C(\CN=[N+]=[N-])C(C)=O)C(OC(C)=O)C(OC(C)=O)C1OC(C)=O (stereo not given) | 23.1 | 70.7 | 89.7 | 5.27 | 31.2 | > 100 | 3.59 | 10.1 | 25.6 | > 100 | 83.8
O=C1ON=C2C3CC4CC12CC1(C3)C(=O)ON=C41 | > 100 | > 100 | > 100 | > 100 | > 100 | > 100 | > 100 | > 100 | > 100 |  | > 100
COC(=O)[C@H](Cc1ccccc1)NP(=O)(O)OCC1C=CC(n2cc(C)c(=O)[nH]c2=O)O1 (stereo not given in full) | > 100 | > 100 |  | > 100 | > 100 | > 100 | > 100 | > 100 | > 100 | > 100 | > 100
CC1(C)CCC(=O)NC1CC(=O)CC1NC(=O)CCC1(C)C (stereo not given) | > 100 | > 100 | > 100 | > 100 | > 100 | > 100 | > 100 | > 100 | > 100 | > 100 | > 100
CCOC(=O)Cn1c(=O)c2cc(-c3ccccc3)cc3c(Cl)nc4c(OC)c(OC)cc1c4c32 | 32.9 | > 100 | 55.4 | 27.4 | 38.3 | 44.4 | > 56.9 | > 100 | 36.2 | > 100 | 55
CCN(CC)CCCOc1cc2c(cc1OC)C(=O)N1CCC[C@H]1C=N2 | > 100 | 92.1 | 45.9 | > 100 | 76.1 | > 100 | 87.5 | 44.3 |  | > 100 | > 100
CCCCCCCCCCCCCCCCCCOCC(COP(=O)([O-])OCC[N+](C)(C)C)OC (stereo not given) | > 63.5 | > 58.9 | 57.9 | 13.6 | > 100 | 57.7 | 28 | 44.3 | 61.6 | 46 | 47.1
c1ccc2c(c1)CC1COc3ccccc3C1O2 (stereo not given) | > 100 | > 100 |  | > 100 | > 100 | > 100 | > 100 | > 100 | > 100 | > 100 | 
Cc1cc2nc(N3C(=O)/C(=C/c4ccc(Cl)cc4)N=C3c3ccccc3)sc2cc1C | > 100 | > 100 | > 100 | 51.7 | 81.7 | > 100 | 38.7 | > 100 |  | > 100 | > 100
N#Cc1ccc(Oc2nc3ccc(C(F)(F)F)cc3nc2-c2ccccc2)cc1 | 29.7 | 36 | 30.2 | 46.3 | > 100 | 34.4 | 44.7 | 44.3 | 32 | 26.9 | 41.2
COc1ccc(-c2cc(-c3cc(F)c(Cl)cc3Cl)on2)cc1OC | > 100 | > 100 | > 100 | 63.4 | > 100 | > 100 | > 100 | > 100 | > 100 | > 100 | > 100
c1ccc2nc(CCC3CCCCN3)ccc2c1 (stereo not given) | > 100 | > 100 | > 100 | > 100 | > 100 | > 100 | > 100 | > 100 | > 100 | > 100 | > 100
Cc1ccc(S(=O)(=O)NC(=O)NC(Cc2ccc(O)c(O)c2)C(=O)O)cc1 (stereo not given) | > 100 | > 100 | > 100 | > 100 | > 100 | > 100 | 63 | > 100 | > 100 |  | > 100
